The values that follow come from patent US12344583B2, “Solid psilocin salts” (LOBE SCIENCES LTD., priority 2022, dated 2025).

In one series the test system is healthy subjects. In words: Phase one open-label single-dose study of psilocin mucate capsules: MMSE and mood assessment by psychiatrist. To be noted: single oral capsule 4.05 mg psilocin mucate (equivalent to 2 mg psilocin).
A short description of series [1]: Stability studies on psilocin mucate capsule (appearance, HPLC assay and impurities, TM-022-0392). The class given is physicochemical. On the procedure: Additional stability studies were performed on the solid psilocin form psilocin mucate (also known as psilocin mucic acid salt or conjugate or psilocin galactaric acid salt or conjugate) capsule.
Appearance was evaluated by viewing of the sample on a watchglass over a black and white background.
Assay conditions for Test/Method TM-022-0392 assessing stability and impurities were as follows: • Mobile phase: MPA: 945 mL water, 5 mL H3PO4, pH to 5.7 with • NaOH; MPB: Acetonitrile • Diluent: 80:20 Water: MeOH • Standard: 0.4 mg/mL Psilocin Mucic RS in Diluent • Sample: 0.4 mg/mL Psilocin Mucic API in Diluent HPLC Conditions are depicted in Table 3.
Calculations were against a bracketing external standard.
Identity of psilocin mucate was verified by ultraviolet (UV) assessment, wherein the UV spectrum of the main peak in the standard matched the UV spectrum of the main peak in the sample and by retention time wherein the retention time ratio was 0.98-1.02.

“And” between values parts separate entries of the source, which are not always exact repeats. Equal entries are not always repeated. “Also recorded” adds a separate entry of the source. Some results are limits rather than exact numbers.

With `CN(C)CCc1c[nH]c2cccc(O)c12.O=C(O)[C@@H](O)[C@H](O)[C@H](O)[C@@H](O)C(=O)O` [psilocin mucate], the “FEELING STATUS” value with healthy subjects (one statement per subject) was “Less anxious, better mood, increase their appetite; also recorded: Feel little beet happier, better energy; also recorded: Feel calm, less thoughts, happier mood; also recorded: Euphoric, better mood, it helps with life stress; also recorded: Euphories, better mood, sleepy, feel time is; also recorded: Sleepy, better thoughts, less worried in general; also recorded: Did not feel change in mood but feeling cold; also recorded: More relaxed, want to drink sweet tea, better; also recorded: Better mood, feels hyper sexual”. In the series on healthy subjects (one value per subject, below 25 expected for a hallucinogenic substance), the MMSE is 29 (2×) and 30 (3×) and 28 (3×) and 27 (2×). Also, the “Total Impurities” value in series [1] (7 Months) is <0.05%; in series [1] (Initial) it was 0.08%. The “Impurities TM-22-0392, individual impurities” value in series [1] (7 Months, all impurities, area percent) is reported as “All <0.05%”; in series [1] (Initial, impurity at RRT I.12, area percent), “RRT I.12/0.08%”. Also, the “Assay TM-22-0392 (% Label Claim)” value in series [1] (7 Months, specification 90.0-110.0%) was 101,7%.
